In patent publication US4847286A, “Cromoglycic acid derivatives, method of production thereof and pharmaceutical composition” (priority 1985, dated 1989):
Where a name gives a salt, the structure may show the parent alone.

What was measured:
[1] = in vivo; settings: rabbit, po, 5 mg/kg
[2] = background statement; cited from earlier work
[3] = Acute toxicity test, oral route; settings: mouse, in vivo, aqueous solution, groups of three ICR-strain male mice
Procedure: The cromoglycic acid derivatives produced in Examples 1, 4, 7, 11 and 12 were administered, each in the form of an aqueous solution, to groups of three ICR-strain male mice by the oral route.

[4] = rabbit, in vivo, po, 5 mg/kg, 360 min

| SMILES | dose excreted at 6 h [1] | absorption in the digestive tract [2] | LD50 [3] | 0-6 Hr urinary recovery [4] |
| --- | --- | --- | --- | --- |
| O=C(O)c1cc(=O)c2c(OCC(O)COc3cccc4oc(C(=O)O)cc(=O)c34)cccc2o1 [Cromoglycic acid] | 3.5% | cannot be absorbed in the digestive tract | – | – |
| CCOC(=O)c1cc(=O)c2c(OCC(COc3cccc4oc(C(=O)OCC)cc(=O)c34)OC(=O)[C@@H](N)CCCCN)cccc2o1 [Example 1, diethyl L-lysylcromoglycate dihydrochloride] | – | – | > 1000 mg/kg | 32.6% |
| CCOC(=O)c1cc(=O)c2c(OCC(COc3cccc4oc(C(=O)OCC)cc(=O)c34)OC(=O)[C@H](C)N)cccc2o1 [Example 4, diethyl L-alanylcromoglycate hydrochloride] | – | – | > 1000 mg/kg | 20.2% |
| CCOC(=O)c1cc(=O)c2c(OCC(COc3cccc4oc(C(=O)OCC)cc(=O)c34)OC(=O)CNC(=O)[C@H](C)N)cccc2o1 [Example 7, diethyl N-(L-alanyl)glycylcromoglycate hydrochloride] | – | – | > 1000 mg/kg | 21.4% |
| CCOCCOC(=O)c1cc(=O)c2c(OCC(COc3cccc4oc(C(=O)OCCOCC)cc(=O)c34)OC(=O)[C@@H](N)CCCCN)cccc2o1 [Example 11, di(2-ethoxyethyl) L-lysylcromoglycate dihydrochloride] | – | – | > 1000 mg/kg | 25.4% |
| CCOCCOC(=O)c1cc(=O)c2c(OCC(COc3cccc4oc(C(=O)OCCOCC)cc(=O)c34)OC(=O)[C@H](C)N)cccc2o1 [Example 12, di(2-ethoxyethyl) L-alanylcromoglycate hydrochloride] | – | – | > 1000 mg/kg | 21.8% |
